This note sets out measurements from paper PMC3269340, “Pharmacokinetics of memantine in rats and mice” (PLoS Currents, 2012).

The target of data set [1] is T1, human PEPT2 (Homo sapiens, UniProt Q16348).
T1 construct: expressed in transfected cells; host or cells: CHO cells
T1 sequence (Q16348 1-729): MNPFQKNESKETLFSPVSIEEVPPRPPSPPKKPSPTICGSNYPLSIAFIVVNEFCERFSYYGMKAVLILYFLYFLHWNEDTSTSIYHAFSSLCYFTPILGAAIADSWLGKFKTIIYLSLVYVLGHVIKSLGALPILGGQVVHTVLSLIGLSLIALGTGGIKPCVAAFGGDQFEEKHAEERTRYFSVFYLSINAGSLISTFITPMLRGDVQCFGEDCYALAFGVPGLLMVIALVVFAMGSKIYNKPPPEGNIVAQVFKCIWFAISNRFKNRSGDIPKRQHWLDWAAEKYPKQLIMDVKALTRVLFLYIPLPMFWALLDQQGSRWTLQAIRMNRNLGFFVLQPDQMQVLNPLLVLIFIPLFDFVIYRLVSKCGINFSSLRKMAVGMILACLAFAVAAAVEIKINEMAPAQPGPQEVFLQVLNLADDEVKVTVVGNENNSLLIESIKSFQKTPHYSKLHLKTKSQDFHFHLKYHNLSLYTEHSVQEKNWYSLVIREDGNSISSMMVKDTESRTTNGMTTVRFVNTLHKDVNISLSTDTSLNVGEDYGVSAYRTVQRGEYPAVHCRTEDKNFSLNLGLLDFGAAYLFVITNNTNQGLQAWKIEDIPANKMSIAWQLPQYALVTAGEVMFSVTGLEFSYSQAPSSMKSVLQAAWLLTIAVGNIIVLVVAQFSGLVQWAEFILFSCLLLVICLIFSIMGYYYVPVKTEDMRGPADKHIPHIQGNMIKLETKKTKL
The data set is described as follows: Indirect uptake transporter assay, PEPT2. Type of data set: in vitro ADME. The source says: (§1) To determine whether memantine is an inhibitor of the human OATP2B1 (OATP-B), OCT1, OCT2, OAT3, PEPT1, PEPT2 uptake transporters. The standard uptake transporter assay is an indirect, inhibitory-type screening assay, performed with cold test article, which in this case was memantine. It provides information on any interaction (substrate or inhibitor) between selected uptake transporters and memantine that would affect the transport of the reporter compound. […] A radiolabeled reporter substrate is transported into the cells transfected with the selected human uptake transporter, and the inhibitory effect of memantine on the transport of this reporter substrate is measured. Values are presented on a relative scale; 100% defined as transport in the presence of the solvent and without memantine (no inhibition), and 0% defined as transport detected without transporter activity. IC50 is defined as the concentration required to inhibit the transport of the reporter substrate by 50%. […]
(§2) After the experiment cells were rinsed with 2 x 100µl of Krebs-Henseleit buffer and lysed with 50 µl of 0.1M NaOH. ^3H-estrone-3-sulfate, ^14C-TEA, ^14C-metformin and ^3H-Gly-Sar transport was determined by total radioactivity by transferring an aliquot (35µl) from each well to a vial containing liquid scintillant for analysis.

In data set [2] the target is T2, OATP2B1 (Homo sapiens, UniProt O94956).
T2 construct: expressed in transfected cells; host or cells: MDCKII cells
T2 sequence (O94956 1-709): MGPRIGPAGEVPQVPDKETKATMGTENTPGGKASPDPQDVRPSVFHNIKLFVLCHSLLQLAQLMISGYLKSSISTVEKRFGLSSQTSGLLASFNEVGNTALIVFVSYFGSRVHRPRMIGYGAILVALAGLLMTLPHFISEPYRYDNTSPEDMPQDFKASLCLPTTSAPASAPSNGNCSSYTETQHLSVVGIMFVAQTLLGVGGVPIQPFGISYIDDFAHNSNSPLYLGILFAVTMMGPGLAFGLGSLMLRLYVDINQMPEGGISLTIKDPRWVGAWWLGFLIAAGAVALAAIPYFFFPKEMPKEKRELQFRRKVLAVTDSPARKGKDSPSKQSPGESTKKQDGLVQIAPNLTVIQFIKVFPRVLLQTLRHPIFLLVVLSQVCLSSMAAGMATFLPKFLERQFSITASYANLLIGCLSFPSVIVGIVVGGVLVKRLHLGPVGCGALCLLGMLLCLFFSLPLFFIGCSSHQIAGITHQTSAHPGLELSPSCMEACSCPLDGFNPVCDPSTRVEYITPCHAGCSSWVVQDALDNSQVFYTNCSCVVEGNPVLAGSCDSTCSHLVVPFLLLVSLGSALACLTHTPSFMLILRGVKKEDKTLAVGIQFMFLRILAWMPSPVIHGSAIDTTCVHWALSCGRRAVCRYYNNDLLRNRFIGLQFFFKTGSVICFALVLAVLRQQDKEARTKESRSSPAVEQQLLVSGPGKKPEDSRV
As to the kind of experiment: Indirect uptake transporter assay, OATP2B1. Type of data set: in vitro ADME.
Text: as §1, §2

As a reminder, the IC50 is the point on the concentration scale where inhibition reaches its midpoint. As a reminder, the inhibition is the relative decrease from the control value, in per cent. For the molecule `CC12CC3CC(C)(C1)CC(N)(C3)C2` [memantine], the “IC50” value in data set [1] (PEPT2, probe printed in Table 5: E3S (0.3µM), methods and text: Gly-Sar) is “ND (Not Determined (< 50% inhibition))”; in data set [2] (OATP2B1, probe printed in Table 5: TEA (3.6 μM), methods and text: E3S) it was > 300 µM. For the same molecule, the inhibition at 300 µM in data set [1] (at 300 µM, read-out: inhibition of PEPT2-mediated glycylsarcosine transport) was determined as 22%; in data set [2] (human, probe 3H-estrone-3-sulfate, at 300 µM, read-out: inhibition of OATP2B1-mediated estrone-3-sulfate transport), 67%.
